In PMC4032254, “Targeting of the MYCN Protein with Small Molecule c-MYC Inhibitors” (PLoS ONE, 2014) one finds IC50 and Kd data, which are given here for two compounds.

The structures appear in SMILES notation.

The test system of one test is Kelly cells. Description: Crystal violet growth inhibition assay in Kelly cells. It counts as cell-based, human. The settings on record: 48 h treatment. An excerpt:
Error bars indicate standard deviation. […] Error bars indicate standard deviation.

In test [1] the target is T1, bHLHZip domain of human MYCN (380–464) (Homo sapiens, UniProt P04198).
T1 construct: N-terminally His-tagged bHLHZip c-MYC (353–437) and bHLHZip MYCN (380–464) proteins were over-expressed in E. coli BL21 (DE3); made in house; host or cells: E. coli BL21 (DE3)
T1 sequence (P04198 380-464): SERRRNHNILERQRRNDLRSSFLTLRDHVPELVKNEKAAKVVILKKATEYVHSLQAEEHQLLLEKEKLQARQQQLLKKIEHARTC
Put plainly: Surface plasmon resonance binding to bHLHZip of MYCN. To be noted: SPR, 25°C, steady state, mean ± SD. The method, then:
For all SPR binding measurements the compounds were injected at increasing concentrations.
In order to determine the affinity of the compounds to c-MYC and MYCN, the response for each small molecule was plotted against the analyte (compound) concentration. The KD was defined as the concentration of analyte at 50% of the experimental maximal Response (Rmax). Approximate KD-values could be determined for all compounds except for #764. […] In summary, all active c-MYC inhibitors tested were also found to bind directly to MYCN.
N-terminally His-tagged bHLHZip c-MYC (353–437) and bHLHZip MYCN (380–464) proteins were over-expressed in E. coli BL21 (DE3) bacteria (Stratagene) at 37°C in LB media with kanamycin. Cultures were induced with Isopropyl β-D-1-thiogalactopyranoside (0,1 mg/ml) at an OD of 0.6 and harvested after 4 hours. After sonication of the proteins in 50 mM NaH2PO4, 100 mM NaCl and 10 mM Tris-HCl (pH = 8,0) for 6×30 seconds, the pellet was resuspended in 100 mM NaH2PO4, 10 mM Tris-HCl, 10 mM imidazole and 8 M urea (pH = 8,0) prior to additional sonication for 6×30 seconds. The proteins were then loaded onto a Ni-Sepahrose High Performance His-Trap column (GE Healthcare), washed with ten column volumes of 100 mM NaH2PO4, 10 mM Tris-HCl, 40 mM imidazole and 8 M urea (pH = 8,0) and finally eluted with two column volumes 100 mM NaH2PO4, 10 mM Tris-HCl, 500 mM imidazole and 8 M urea (pH = 8,0). Fractions without visible higher molecular mass contaminations, as judged by SDS-page, were pooled and refolded by dialysis in 50 mM NaH2PO4, 100 mM NaCl, 10 mM Tris-HCl (pH = 8,0), 5 mM EDTA, 2 mM DTT and decreasing concentrations of urea (6 M, 4 M, 2 M and 0 M). […] Protein concentrations were determined by SDS-page comparing purified proteins to a standard curve of BSA loaded on the gel.
Surface Plasmon Resonance (SPR) experiments were performed using a Biacore T200 (GE Healthcare) instrument at 25°C. […] The obtained data was analyzed by the Biacore T200 Evaluation Software 2.0 (GE Healthcare). […]
Background: In SPR one partner is held on a chip, and binding of the other changes the refractive index at the surface.

`CCc1ccc(C=C2SC(=S)NC2=O)cc1` [Compound 10058-F4, [Z,E]-5-[4-ethylbenzylidine]-2-thioxothiazolidin-4-one] had an IC50 in the test on Kelly cells of 41.1 µM. Moreover, in test [1], the Kd came out at 41.9 µM.

`O=[N+]([O-])c1ccc(Nc2ccccc2-c2ccccc2)c2nonc12` [Compound 10074-G5] came in with a half-inhibitory concentration (IC50) with Kelly cells of 22.5 µM. Also, the dissociation constant Kd in test [1] amounted to 19.2 µM.

As a reminder, the IC50 is the midpoint of a concentration-inhibition curve. By Kd is commonly meant the free concentration of one partner at which half of the binding sites on the other are occupied at equilibrium, for simple one-to-one binding. Lower therefore signals higher affinity.
